Measurements from the NIST ThermoML archive (doi:10.1016/j.jct.2018.01.015).
Numbers after ± are expanded uncertainties.

Assay: xn = mol fraction of the nth substance listed
Settings: Gas, rotating-body viscometer for gases

N#N [nitrogen] + O=C=O
Settings	viscosity [mPa·s]
298.19 K, 1498.4 kPa, x1 = 0.7498	0.01744 ± 4.4e-05
298.2 K, 202.6 kPa, x1 = 0.7498	0.0172 ± 4.4e-05
298.2 K, 390.5 kPa, x1 = 0.7498	0.01724 ± 4.4e-05
298.2 K, 599.6 kPa, x1 = 0.7498	0.01727 ± 4.4e-05
298.2 K, 807 kPa, x1 = 0.7498	0.0173 ± 4.4e-05
298.2 K, 1008.5 kPa, x1 = 0.7498	0.01734 ± 4.4e-05
298.2 K, 1501.4 kPa, x1 = 0.7498	0.01744 ± 4.4e-05
298.21 K, 108 kPa, x1 = 0.4996	0.0165 ± 3.1e-05
298.21 K, 108.7 kPa, x1 = 0.2479	0.01571 ± 4.2e-05
298.21 K, 109 kPa, x1 = 0.4996	0.01649 ± 3.1e-05
298.21 K, 109 kPa, x1 = 0.7498	0.01719 ± 4.4e-05
298.21 K, 201.9 kPa, x1 = 0.4996	0.01651 ± 3.1e-05
298.21 K, 204.7 kPa, x1 = 0.4996	0.0165 ± 3.1e-05
298.21 K, 205.2 kPa, x1 = 0.2479	0.01572 ± 4.2e-05
298.21 K, 395.1 kPa, x1 = 0.2479	0.01574 ± 4.2e-05
298.21 K, 399.1 kPa, x1 = 0.4996	0.01654 ± 3.1e-05
298.21 K, 402.3 kPa, x1 = 0.4996	0.01654 ± 3.1e-05
298.21 K, 593.4 kPa, x1 = 0.4996	0.01656 ± 3.1e-05
298.21 K, 602.9 kPa, x1 = 0.2479	0.01577 ± 4.2e-05
298.21 K, 603.8 kPa, x1 = 0.4996	0.01657 ± 3.1e-05
298.21 K, 800.9 kPa, x1 = 0.4996	0.0166 ± 3.1e-05
298.21 K, 803.6 kPa, x1 = 0.4996	0.01661 ± 3.1e-05
298.21 K, 807.6 kPa, x1 = 0.2479	0.01581 ± 4.2e-05
298.21 K, 1000 kPa, x1 = 0.4996	0.01664 ± 3.1e-05
298.21 K, 1002.4 kPa, x1 = 0.2479	0.01585 ± 4.2e-05
298.21 K, 1003.3 kPa, x1 = 0.4996	0.01664 ± 3.1e-05
298.21 K, 1202 kPa, x1 = 0.4996	0.0167 ± 3.1e-05
298.21 K, 1204.4 kPa, x1 = 0.4996	0.01669 ± 3.1e-05
298.22 K, 107.9 kPa, x1 = 0.2479	0.01571 ± 4.2e-05
298.22 K, 204.8 kPa, x1 = 0.2479	0.01572 ± 4.2e-05
298.22 K, 401.2 kPa, x1 = 0.2479	0.01575 ± 4.2e-05
298.22 K, 602.1 kPa, x1 = 0.2479	0.01578 ± 4.2e-05
298.22 K, 794.6 kPa, x1 = 0.2479	0.01581 ± 4.2e-05
298.22 K, 1003 kPa, x1 = 0.2479	0.01585 ± 4.2e-05
298.24 K, 800.5 kPa, x1 = 1	0.01785 ± 2.5e-05
298.25 K, 99.6 kPa, x1 = 1	0.01776 ± 2.5e-05
298.25 K, 100.7 kPa, x1 = 1	0.01777 ± 2.5e-05
298.25 K, 200.5 kPa, x1 = 1	0.01778 ± 2.5e-05
298.25 K, 400.7 kPa, x1 = 1	0.0178 ± 2.5e-05
298.25 K, 400.8 kPa, x1 = 1	0.0178 ± 2.5e-05
298.25 K, 600.2 kPa, x1 = 1	0.01783 ± 2.5e-05
298.25 K, 1000.1 kPa, x1 = 1	0.01789 ± 2.5e-05
298.25 K, 1500.2 kPa, x1 = 1	0.01799 ± 2.5e-05
323.2 K, 109.1 kPa, x1 = 0.7498	0.01837 ± 5.1e-05
323.2 K, 198.2 kPa, x1 = 0.7498	0.01838 ± 5.1e-05
323.2 K, 393.8 kPa, x1 = 0.7498	0.01841 ± 5.1e-05
323.2 K, 600.2 kPa, x1 = 0.7498	0.01844 ± 5.1e-05
323.2 K, 800.3 kPa, x1 = 0.7498	0.01847 ± 5.1e-05
323.2 K, 1000.9 kPa, x1 = 0.7498	0.0185 ± 5.1e-05
323.2 K, 1500.1 kPa, x1 = 0.7498	0.0186 ± 5.1e-05
323.22 K, 108.4 kPa, x1 = 0.2479	0.01691 ± 5.5e-05
323.22 K, 109.2 kPa, x1 = 0.4996	0.01769 ± 4.2e-05
323.22 K, 196.1 kPa, x1 = 0.2479	0.01693 ± 5.5e-05
